In PMC9106797, “Formation and Identification of a 5-(Hydroxymethyl)-2-Furfural-Zingerone Condensate and Its Cytotoxicity in Caco-2 Cells” (Frontiers in Nutrition, 2022):
Several values for one entry are separate records, joined by “and”; a condition that tells them apart may be missing. Equal entries are not always repeated.

Columns and labels:
[1] = Cell viability assay (CCK-8); format: cell-based; settings: human, Caco-2 cells, read-out: IC50, cytotoxicity against Caco-2 cells; for IC50 at 24 h: 24 h incubation; for IC50 at 48 h: 48 h incubation
Description: The Caco-2 cell line (ATCC HTB-37) was obtained from the American Type Culture Collection (Rockville, MD, USA). Cells were cultivated by the method of Kosińska-Cagnazzo et al. ([30]) with slight modifications. Specifically, α-MEM medium supplemented with 10% FBS, 1% penicillin/streptomycin, and 1% NEAA was used to cultivate Caco-2 cells at 37°C and 5% (v/v) CO2 atmosphere. When the cells reached 80–90% confluence, they were detached with 0.25% trypsin-EDTA and further sub-cultured on fresh growth medium. Cells between passages 30 and 35 were used.
Cell viability was measured by the CCK-8 method as described by Zhao et al. ([31]) with modifications. Briefly, Caco-2 cells at a density of 2.5 × 10^4 cells/well were seeded into 96-well plates and maintained at 37°C under a humidified atmosphere containing 5% CO2 and 95% air for 24 h. Subsequently, the origin culture medium was removed, and different concentrations (2, 4, 8, 16, 32, and 64 mM) of HMZ and HMF were added. Three duplicate wells were set for each concentration. The cells were further incubated for 24 and 48 h, respectively. Then, 10 μL of CCK-8 solution was added into each well for 2 h, and the absorbance was read at 450 nm on a microplate reader (Multiskan, Thermo, USA).

[2] = In vitro simulated digestion (mouth, gastric, intestinal stages), HPLC; format: in vitro ADME; settings: for decrease of HMZ content after digestion: 37°C
Description: The adduct was subjected to in vitro simulated digestion at three stages, namely, the mouth, gastric, and intestinal stages, to evaluate its stability ([28], [29]). Briefly, HMZ (2 mg) was dissolved in DMSO (200 μL), diluted with ultra-pure water to the final concentration of 0.5 mg/mL, and then mixed with 6 mL of SSF in a flask. The mixture was magnetically stirred at 100 r/min for 2 min at 37°C to mimic saliva digestion. Afterward, 10 mL of SGF was added to simulate the gastric phase, and the mixture was reacted for 2 h under the same condition. Subsequently, 20 mL of SIF was added for the simulation of intestinal digestion for another 2 h. Samples (100 μL) were withdrawn at the end of each stage of the digestion process for HPLC analysis. Each digestion process was repeated in triplicate, and the content of HMZ was calculated by referring to the calibration curve.

Caco-2 cells = assay: Absorption of HMZ in Caco-2 cells (HPLC of treated solution); format: in vitro ADME; settings: 2 h, 37°C
Description: HMZ absorption was evaluated according to de Oliveira et al. with slight modifications ([32]). Briefly, Caco-2 cells were inoculated in 6-well plates at the density of 2 × 10^4 cells/well (2 mL) and cultured until 90% confluence at 37°C with 5% CO2. Then, the cells were washed thrice with 1 mL of HBSS. Another 1 mL of HBSS was added for further culture for 30 min. Ten microliters of HMZ solution (pH 7.4) at concentrations of 1–100 μM were added separately and cultivated for 2 h to allow the adduct solution to be absorbed by cells under certain condition (37°C, 5% CO2/95% air). The treated solution was transferred into Eppendorf tubes for HPLC analysis. The control of each sample under different concentrations was the respective sample without incubation, and each of the absorption rate of the adduct by Caco-2 cells was calculated as follows:
(1) Absorption rate (%) =S1−S2/S1× 100%
where S1 is the peak area of the control, and S2 is the peak area of the sample incubated for 2 h.

[3] = Effect of reaction temperature on HMZ amount (one-factor-at-a-time, HPLC); format: physicochemical; settings: temperature over 50°C, 3 h
Description: A one-factor-at-a-time design was applied to estimate the effects of different reaction parameters on HMF elimination by ZGR, as well as the adduct formation between HMF and ZGR. ZGR/HMF in the molar ratio of 2: 1 was mixed in a three-necked flask and incubated at 40°C for different durations (0.5, 1.0, 1.5, 2.0, 2.5, and 3.0 h) to investigate the effect of reaction time. ZGR/HMF in the molar ratio of 2: 1 was mixed and reacted for 3 h at different temperature levels (20, 30, 40, 50, 60, and 70°C) to study the effect of temperature. In addition, temperature and reaction duration were kept constant at 40°C and 3 h, respectively, to evaluate the effect of different ZGR/HMF molar ratios (4: 1, 3: 1, 2: 1, 1: 1, and 1: 2). At the end of each reaction, 30 μL of the aqueous reaction mixture was diluted with methanol to a final volume of 500 μL for HPLC analysis. HMF and HMZ were quantified by comparing their peak areas to each standard curve.

FVB/N mice = system: FVB/N mice; parameters: method as in PMID 22349055; settings: FVB/N mice, 31.25, 62.5, 125 and 250 mg SMF/kg; cited from earlier work

For `COc1cc(CCC(=O)/C=C/c2ccc(CO)o2)ccc1O` [HMZ], the IC50 at 24 h [1] was 41.5 ± 5.33 mM, the IC50 at 48 h [1] was 25.4 ± 3.12 mM and the “decrease of HMZ content after digestion” value ([2]; after SGF (simulated gastric fluid), further 2 h) was 14.19%. The “decrease of HMZ content after digestion” value ([2]; after SIF (simulated intestinal fluid), further 2 h) was 24.06%, the “decrease of HMZ content after digestion” value ([2]; after SSF (simulated salivary fluid), 2 min) was 7.14% and the “stability in simulated in vitro digestion” value ([2]; three digestion conditions) was “moderate level”. The absorption (Caco-2 cells; HMZ 1 μM) was 0.61 ± 0.75 ×10^-5 μmol, the absorption rate (Caco-2 cells; HMZ 1 μM) was 60.74% and 60.74 ± 7.51% and the absorption (Caco-2 cells; HMZ 4 μM) was 2.85 ± 0.03 ×10^-5 μmol. The absorption rate (Caco-2 cells; HMZ 4 μM) was 71.38% and 71.38 ± 0.80%, the absorption (Caco-2 cells; HMZ 20 μM) was 11.22 ± 0.03 ×10^-5 μmol and the absorption rate (Caco-2 cells; HMZ 20 μM) was 56.11% and 56.11 ± 1.85%. For the same molecule, the absorption (Caco-2 cells; HMZ 100 μM) was 34.71 ± 0.17 ×10^-5 μmol, the absorption rate (Caco-2 cells; HMZ 100 μM) was 34.71% and 34.71 ± 1.68% and the “thermal stability in the reaction mixture” value [3] was “appeared to degrade”.

In the case of `O=Cc1ccc(COS(=O)(=O)O)o1` [SMF, 5-sulfo-oxymethylfurfural], the liver toxicity (FVB/N mice) is given as “hepatic lesions”.

With `O=Cc1ccc(CO)o1` [HMF, 5-(Hydroxymethyl)-2-furfural] the IC50 at 24 h [1] was 35.4 ± 4.03 mM and the IC50 at 48 h [1] was 19.2 ± 2.1 mM.
